Values of other authors in patent US9974685B2, “Drug delivery system and methods of treating open angle glaucoma and ocular hypertension” (Mati Therapeutics, Inc., priority 2011, dated 2018).

Key:
cynomolgus monkeys = conditions: doses up to 50 μg/eye twice daily (100 μg/eye/day), 52 weeks, not judged to be deleterious
rabbits = conditions: twice-daily ocular instillation, doses up to 50 μg per eye for 52 weeks (100 μg/eye/day)
healthy volunteers = conditions: 28 healthy volunteers; 1 drop of 50 μg/mL 4 times daily for 2 weeks; resolved spontaneously without cessation of treatment

In the case of `CC(C)OC(=O)CCC/C=C\C[C@@H]1[C@@H](CC[C@@H](O)CCc2ccccc2)[C@H](O)C[C@@H]1O` [Latanoprost, isopropyl-(Z)-7 [(1R,2R,3R,5S)3,5-dihydroxy-2-[(3R)-3-hydroxy-5-phenylpentyl]cyclopentyl]-5-heptenoate], the effects observed (cynomolgus monkeys) is given as “a reversible change in the aspect of the palpebral fissure and a non-reversible increase in iris pigmentation”, the adverse effects (rabbits) is given as “no adverse effects” and the “ocular effects during the 4-dose regimen” value (healthy volunteers) is given as “transient photophobia, cells, and mild flare were common”. For the same compound, the “solubility in organic solvents” value (acetone, ethanol, ethyl acetate, isopropanol, methanol and octanol) was “freely soluble”, the solubility in acetonitrile (acetonitrile) was “very soluble” and the solubility in water (water) was “practically insoluble”.
